# Source: patent EP3544951B1, “SUBSTITUTED HEXARIC ACID DERIVATIVES AND USES THEREOF” (Plant Advanced Technologies Pat, priority 2016, dated 2018)
# Tests used:
# [1] = system: neurones corticaux primaires de rat; experiment: Survival of primary cortical neurons intoxicated with Aβ 1-42 peptide (MAP-2 staining); format: cell-based; settings: pre-incubated 1 h before Aβ 1-42 20 µM
# Text: (§1) Le but de cette étude est d'évaluer les effets de l'acide léontopodique B1 sur des neurones corticaux primaires de rat, intoxiqués par le peptide Aβ selon le modèle in vitro de la maladie d'Alzheimer décrit dans Callizot et al., 2013 (Callizot N. et al., Operational dissection of β-amyloid cytopathic effects on cultured neurons. J Neurosci Res. 2013, 91: 706-16). La survie des neurones et des astrocytes ainsi que l'intégrité du réseau de neurites sont évaluées.
# (§2) Des neurones corticaux de rat sont cultivés comme décrit dans Singer et al., 1999 (Singer C. et al., Mitogen-activated protein kinase pathway mediates estrogen neuroprotection after glutamate toxicity in primary cortical neurons. J Neurosci. 1999, 19: 2455-2463) et Callizot et al. (2013).
# (§3) En résumé, des rats femelles gravides sont tuées par dislocation cervicale après 15 jours de gestation. Les fœtus sont collectés et immédiatement placés dans un milieu glacé L15 Leibovitz (Pan Biotech, Batch: 8810315) additionné de 2% pénicilline (10,000 U/mL) et d'une solution de streptomycine (10 mg/mL) (PS; Pan Biotech, batch: 1451013) et 1% de albumine de sérum de bovin (BSA; Pan Biotech, batch: K180713). Le cortex est traité pendant 20 min à 37°C avec une solution de trypsine- EDTA (Pan Biotech, Batch: 3330914) à une concentration finale de 0,05% trypsine et 0,02% EDTA. […]
# [2] = system: réseau de neurites de neurones corticaux primaires; experiment: Neurite network of primary cortical neurons intoxicated with Aβ 1-42 peptide (MAP-2 staining); format: cell-based, rat; settings: two lowest concentrations 10 nM, 100 nM; pre-incubated 1 h before Aβ 1-42 20 µM, 24 h (Figure 2)
# Text: as §1, §2, §3
# astrocytes = experiment: Survival of astrocytes in primary cortical neuron culture intoxicated with Aβ 1-42 peptide (GFAP staining); format: cell-based, rat; settings: Aβ 1-42 20 µM, 24 h (Figure 3)
# Text: as §1, §2, §3
# [3] = system: astrocytes sains (non traités par le peptide Aβ 1-42); experiment: Proliferation of pure healthy astrocytes (MTT test, CellTiter 96 Aqueous One Solution); format: cell-based, rat (Wistar); settings: 4 days incubation, no Aβ 1-42 (Figure 4)
# Description: En résumé, le cerveau entier d'un embryon âgé de 15 jours de rat (Wistar) est prélevé. Le cerveau entier est dissocié par trypsinisation. Les cellules sont suspendues dans un milieu de culture du milieu DMEM (Dulbecco's modified Eagle's medium) complémenté avec 2% de pénicilline (10,000 U/mL) et d'une solution de streptomycine (10 mg/mL), et 10% de sérum de veau fœtal (FCS). Les cellules sont ensemencées à une densité de 267 000 cellules par cm^2 dans un flacon de culture. Au stade de la confluence cellulaire, le flacon est secoué pendant 3 heures. Le surnageant de la culture cellulaire est enlevé, les cellules sont traitées par une solution de trypsine- EDTA (Pan Biotech) à une concentration finale de 0,05% trypsine et de 0,02% EDTA. Ensuite les cellules sont congelées afin de constituer une lignée cellulaire d'astrocytes.
# Les astrocytes (au stade : P4) sont ensemencées à une densité de 4 000 par puits d'une plaque de 96 puits avec de l'acide léontopodique B1 (dissous à différentes concentrations : 100 nM, 1 µM, 10 µM et 50 µM dans le milieu de culture) et sont cultivées à 37°C dans un incubateur contenant 95% d'air et 5% de CO2. Le milieu est changé tous les jours. Les astrocytes sont cultivés pendant 4 jours en présence d'acide léontopodique B1 avant de mesurer son effet sur la prolifération des astrocytes. […]
smiles,measurement,setting,value
"O=C(/C=C/c1ccc(O)c(O)c1)OC(C(=O)O)C(OC(=O)/C=C/c1ccc(O)c(O)c1)C(OC(=O)/C=C/c1ccc(O)c(O)c1)C(O)C(=O)O (stereo not shown) [acide léontopodique B1, acide 3,4,5-tricaféoylhexarique]",effet sur la survie des neurones,"[1]; 10 nM, 100 nM, 1 µM, 10 µM, 24 h, protective effect follows a bell-shaped curve (Figure 1)",effet significatif et important
same,mort neuronale,"[1]; 100 nM and 1 µM, 24 h (Figure 1)",aucune mort neuronale n'a été observée
same,effet sur le réseau de neurites,[2],effet significatif et important
same,effet sur la survie des astrocytes,astrocytes; all concentrations (10 nM to 10 µM),effet protecteur
same,mort cellulaire (astrocytes),"astrocytes; three highest concentrations 100 nM, 1 µM, 10 µM",Aucune mort cellulaire n'a été observée
same,effet sur la prolifération des astrocytes,[3]; 100 nM up to 50 µM,aucun effet significatif
same,concentration cellulaire,[3]; highest concentration 50 µM,légère mais non significative diminution
